Data published in patent US8133692B2, “Methods of predicting responsiveness to chemotherapeutic agents and selecting treatments” (University of South Florida, priority 2005, dated 2012).
e = 2'-O-(2-methoxyethyl) (MOE); d = 2'-deoxy (DNA)

Experiments:
Format in all cases: cell-based, human
[1] = tested on: Stat3; assay: IL-6 stimulation: EMSA of Stat3 DNA-binding activity; settings: serum-starved MDA-MB-435s cells; IL-6 20 or 30 ng/mL; within 30 minutes
Procedure: Nuclear extract preparation and EMSA. Nuclear extracts were prepared as previously described by Yu et al., Science 269:81-83 (1995), which is incorporated herein by reference, by high-salt extraction into 30 to 70 μL buffer [20 mmol/L HEPES (pH 7.9), 420 mmol/L NaCl, 1 mmol/L EDTA, 20% glycerol, 20 mmol/L NaF, 1 mmol/L Na3VO4, 1 mmol/L Na4P2O7, 1 mmol/L DTT, 0.5 mmol/L phenylmethylsulfonyl fluoride, 0.1 μmol/L aprotinin, 1 μmol/L leupeptin, and 1 μmol/L antipain]. For EMSA, 5 μg of total nuclear protein were used for each lane. EMSA was done using a ^32P-labeled oligonucleotide probe containing a high-affinity cis-inducible element (hSIE, m67 variant) derived from the c-fos gene promoter (sense strand 5′[…]-3′) (SEQ ID NO: 3) that binds activated Stat3 proteins. Following incubation of radiolabeled probes with nuclear extracts, protein-DNA complexes were resolved by nondenaturing PAGE and detected by autoradiography. Stat3 protein was supershifted in the EMSA by preincubation with Stat3 antibody (C-20X, Santa Cruz Biotechnology, Santa Cruz, Calif.).
To investigate whether cytokine-induced Stat3 activity correlates with increased Survivin expression in breast cancer cells, cells were stimulated with IL-6 to increase Stat3 activation. […]

[2] = tested on: MDA-MB-435s cells; assay: IL-6 stimulation: Western blot for phosphor-Stat3 and Survivin; settings: IL-6 treatment, after 48 hours
Procedure: (§1) Western blot analyses. Cells were lysed in a buffer containing 10 mmol/L Tris-HCl (pH 8.0), 150 mmol/L NaCl, 1% NP40, 0.5% sodium deoxycholate, 0.1% SDS, 1 mmol/L EDTA (pH 8.0), 2 mmol/L phenylmethylsulfonyl fluoride, 2 μg/mL aprotinin, 2 μg/mL leupeptin, and 1 mmol/L Na3VO4. For Western blot analyses, 30 μg of total extracted proteins were applied per lane before SDS-PAGE. Following transfer to nitrocellulose membranes, protein expression levels were detected using polyclonal anti-poly-(ADP-ribose) polymerase antibodies (Cell Signaling Technology, Beverly, Mass.). The expression of β-actin (Sigma-Aldrich, St. Louis, Mo.) was used as a normalization control for protein loading.
To investigate whether cytokine-induced Stat3 activity correlates with increased Survivin expression in breast cancer cells, cells were stimulated with IL-6 to increase Stat3 activation. For IL-6 stimulation, cells were serum-starved (DMEM supplemented with 0.1% fetal bovine serum) for 18 hours before IL-6 treatment (20 or 30 ng/mL in DMEM) for 30 minutes (EMSA) or 48 hours (Western blot analysis). Nuclear extracts and cell lysates were prepared for EMSA and Western blot analysis, respectively, as described above.

[3] = tested on: MDA-MB-435s and MDA-MB-231 cells; assay: Apoptosis assays (microscopy, in situ TUNEL, PARP cleavage Western blot) in breast cancer cells
Procedure: To assess whether apoptosis was occurring in the cells after blocking of Stat3 the cells were examined microscopically and a TUNEL assay and poly-(ADP)-ribose polymerase (PARP) cleavage assay were performed.
(§2) In situ terminal deoxyribonucleotidyl transferase-mediated dUTP nick end labeling and cellular proliferation assays. MDA-MB-435s and MDA-MB-231 cells were transfected with antisense or control mismatch oligonucleotides. After 48 hours, cells were labeled for apoptotic DNA strand breaks by terminal deoxyribonucleotidyl transferase-mediated dUTP nick end labeling (TUNEL) reaction using an in situ cell death detection assay (Roche Applied Science, Indianapolis, Ind.) according to the instructions of the supplier. TUNEL-positive nuclei were counted and the apoptotic index was expressed as the number of apoptotic cells in one microscopic field. To determine cellular viability, cells were harvested by trypsinization and counted by trypan blue exclusion assay at 24 and 48 hours after transfection. All experiments were done in triplicate.
as §1

[4] = tested on: phosphorylated Stat3; assay: Western blot for phosphorylated Stat3 after gefitinib in NSCLC cells; settings: 24 hours
Procedure: (§3) Protein expression analysis. Cell lysates were normalized for total protein content (50 μg) and subjected to SDS-PAGE as described by Song et al., Oncogene 22:4150-65 (2003). Primary antibodies used in these studies consisted of Stat3 (Transduction Laboratories; BD Biosciences, Mississauga, Ontario, Canada), pStat3 Y705 (Cell Signaling Technology), cleaved poly (ADP-ribose) polymerase (Cell Signaling Technology, Beverly, Mass.), Mcl-1 (Santa Cruz Biotechnology, Santa Cruz, Calif.), Bcl-2 (DAKO, Carpinteria, Calif.), Bcl-xL (PharMingen, San Diego, Calif.), and β-actin (Sigma-Aldrich, Milwaukee, Wis.). Detection of proteins was accomplished using horseradish peroxidase-conjugated secondary antibodies and enhanced chemiluminescence purchased through Amersham Biosciences (Pittsburgh, Pa.).

[5] = tested on: Stat3 mRNA; assay: RNase protection assay of Stat3 mRNA after transfection with antisense oligonucleotides; settings: MDA-MB-435s cells; compared with the mismatch oligonucleotides; 24 and 36 hours after transfection
Procedure: (§4) The human breast cancer cell line MDA-MB-435s, harbors activated Stat3. The cells were grown in DMEM supplemented with 10% fetal bovine serum, 100 units/mL penicillin, and 100 μg/mL streptomycin. The cells were transfected with Stat3 antisense or mismatch oligonucleotides using Lipofectamine-Plus as described by the supplier (Life Technologies, Grand Island, N.Y.). The Stat3 antisense (5′[…]-3′) (SEQ ID NO: 1) and control mismatch (5′[…]-3′) (SEQ ID NO: 2) oligonucleotides were synthesized using phosphorothioate chemistry. To increase stability, oligonucleotides were synthesized with 2′-O-methoxyethyl modification of the five or three underlined terminal nucleotides. The final concentration for Stat3 antisense and control mismatch oligonucleotides was […]. Twenty-four and 36 hours after transfection, the mRNA levels and DNA-binding activities of Stat3 were measured by RNase protection and electrophoretic mobility shift (EMSA) assays, respectively.
RNase protection assay. Total RNA was isolated from MDA-MB-435s cells using the RNAeasy mini kit (Qiagen, Valencia, Calif.). RNase protection assays were carried out with the Riboquant hStress-1 template set containing Bcl-xL and Mcl-1 probes or custom-made multiprobe templates containing Stat3 probes (BD PharMingen, San Diego, Calif.). […]

[6] = tested on: Stat3; assay: EMSA of Stat3 DNA-binding activity after antisense transfection; settings: MDA-MB-435s cells, 24 and 36 hours after transfection
Procedure: as §4
Nuclear extract preparation and EMSA. […] Following incubation of radiolabeled probes with nuclear extracts, protein-DNA complexes were resolved by nondenaturing PAGE and detected by autoradiography. […]

[7] = tested on: MDA-MB-435s and MDA-MB-231 cells; assay: Cellular viability by trypan blue exclusion assay; settings: after 24 or 48 hours of incubation
Procedure: as §2

[8] = tested on: MDA-MB-435s cells; assay: Microarray gene expression profiling after blockade of Stat3; settings: 24 hours
Procedure: Microarray gene expression profiling analyses were completed to assess the gene expression changes associated with blockade of Stat3 activity. Five micrograms of total RNA collected from MDA-MB-435s cells treated with antisense or control mismatch oligonucleotides for 24 hours served as the mRNA sources for microarray analysis. The poly(A) mRNA was specifically converted to cDNA and then amplified and labeled with biotin following the procedure initially described by Van Gelder et al., Proc. Natl. Acad. Sci. USA 87:1663-67 (1990) which is incorporated herein by reference. Hybridization with the biotin-labeled DNA, staining, and scanning of the microarray chips followed the prescribed procedure outlined in the Affymetrix technical manual.
The oligonucleotide probe arrays were Human Genome U133A chips (Affymetrix, Santa Clara, Calif.). Scanned output files were visually inspected for hybridization artifacts and then analyzed using Affymetrix Microarray MAS 5.0 software. The MAS 5.0 software identifies the increased and decreased genes between any two samples with a statistical algorithm that assesses the behavior of oligonucleotide probe sets designed to detect the same gene. Probe sets that yielded a change at P<0.0045 were identified as changed (increased or decreased). In addition, the data were processed using robust multiarray analysis as described by Bolstad et al., Bioinformatics 19:185-93 (2003) which is incorporated herein by reference in its entirety. […] Empirical estimates of the null distribution were determined using permutation analysis, thereby controlling the number of false positives. The significance analysis of microarrays (as described by Tusher et al., Proc Natl Acad Sci USA 98:5116-21 (2001), which is incorporated herein by reference) implements this approach to address the multiple testing problem and was also applied to the data analysis.

[9] = tested on: Survivin; assay: RNase protection assay and Western blot for Survivin after Stat3 antisense
Procedure: RNase protection assay. Total RNA was isolated from MDA-MB-435s cells using the RNAeasy mini kit (Qiagen, Valencia, Calif.). RNase protection assays were carried out with the Riboquant hStress-1 template set containing Bcl-xL and Mcl-1 probes or custom-made multiprobe templates containing Stat3 probes (BD PharMingen, San Diego, Calif.). Briefly, the multiprobe templates were synthesized by in vitro transcription with incorporation of […] and purified on Quick Spin RNA columns (Roche Applied Science, Indianapolis, Ind.). Labeled probe (1×10^6 cpm) was hybridized with 10 μg of total RNA through a temperature gradient of 90° C. to 56° C. over a 16-hour period. […]
Western blot analyses. […] Following transfer to nitrocellulose membranes, protein expression levels were detected using polyclonal anti-poly-(ADP-ribose) polymerase antibodies (Cell Signaling Technology, Beverly, Mass.). […]
The microarray data were validated using an RNase protection assay using a Survivin probe (BD PharMingen, San Diego, Calif.) as described above. […] Protein expression levels were detected using polyclonal anti-Stat3 (Santa Cruz Biotechnology, Santa Cruz, Calif.) and polyclonal anti-Survivin (Alpha Diagnostics International, San Antonio, Tex.) antibodies.

[10] = tested on: H1650, H1975 and H1299 cells; assay: Western blot for Stat3, cleaved PARP and Bcl-2 family proteins after antisense Stat3 in NSCLC cells
Procedure: as §3
To determine if Stat3 plays a role in survival in EGFR mutant cells, antisense Stat3 oligonucleotides were used to down-regulate Stat3 as described above. […] Levels of the Bcl-2 family proteins Bcl-xL, Mcl-1, and Bcl-2 were reduced in cells treated with antisense Stat3 consistent with the known role of Stat3 in regulating these proteins (FIG. 9E).

[11] = Survivin antisense 300 nmol/L, MDA-MB-435s and MDA-MB-231 cells

“IL-6: interleukin-6, cytokine used to stimulate cells and increase Stat3 activation” was tested, and the “Stat3 DNA-binding activity (EMSA)” value [1] was “increases Stat3 DNA-binding activity”, the “Survivin protein expression (Western blot)” value [2] was “induced” and the “phosphor-Stat3 levels (Western blot)” value [2] was “induced”.

In the case of “antisense oligonucleotides directed against Survivin: Antisense oligonucleotides directed against Survivin 5′-CCCAGCCTTCCAGCTCCTTG-3′ (SEQ ID NO: 4), synthesized using phosphorothioate chemistry (sugars from the 5' end e3 d14 e3, all phosphorothioate, methylation of C not given here; listed as Homo sapiens)”, the “Poly-(ADP-ribose) polymerase cleavage” value [3, 11] is reported as “evident” and the “in situ TUNEL staining” value [3, 11] is reported as “evident”.

For `COc1cc2ncnc(Nc3ccc(F)c(Cl)c3)c2cc1OCCCN1CCOCC1` [gefitinib, Gefitinib], the “phosphorylated Stat3” value ([4]; H1650 cells with the L746-p753 deletion mutation in EGFR) was “no effect on phosphorylated Stat3”, the “phosphorylated Stat3” value ([4]; H1975 cells) was “no effect on phosphorylated Stat3” and the “phosphorylated Stat3” value ([4]; H3255 cells with the L858R mutation in EGFR, increasing doses) was “complete inhibition of phosphorylated Stat3”.

With “Stat3 antisense: Stat3 antisense 5′GCTCCAGCATCTGCTGCTTC-3′ (SEQ ID NO: 1), phosphorothioate chemistry with 2′-O-methoxyethyl modification of terminal nucleotides (sugars from the 5' end e5 d10 e5, all phosphorothioate, methylation of C not given here; listed as Homo sapiens)” the “Stat3 mRNA expression” value [5] was “diminished Stat3 mRNA expression”, the “Stat3 DNA-binding activity” value [6] was “significant decrease in Stat3 DNA-binding activity” and the “apoptosis by in situ TUNEL assay” value ([3]; Stat3 antisense, 48 hours) was “occurrence of apoptosis was confirmed”. For the same compound, the “cleavage of poly-(ADP-ribose) polymerase” value ([3]; Stat3 antisense, 48 hours after treatment) was “cleavage of poly-(ADP-ribose) polymerase”, the “vacuolated cells and cellular debris (light microscopy)” value ([3]; incubation for up to 48 hours) was “marked increase in vacuolated cells and cellular debris” and the “growth inhibition by trypan blue exclusion” value [7] was “induced significant growth inhibition”. The “expression of Bcl-2 family proteins by microarray analysis” value [8] was “did not reveal consistent decreases”, the “expression of other IAP family members (X-linked IAP, cellular IAP-1, cellular IAP-2) by microarray” value [8] was “no change” and the “expression of Survivin by microarray analysis” value ([8]; antisense vs control mismatch) was “found to be diminished”. For the same compound, the “mRNA expression of Survivin (RNase protection assay)” value ([9]; antisense oligonucleotide-treated breast cancer cells) was “decrease in mRNA expression of Survivin”, the “Survivin protein expression (Western blot)” value ([9]; breast cancer cells) was “decreased Survivin expression” and the apoptosis ([10]; H1299 cells, despite Stat3 knock-down) was “No apoptosis was observed”. For the same compound, the Stat3 protein levels ([10]; H1650 and H1975 cells) was “decreased Stat3 protein levels”, the “cleavage of poly(ADP-ribose) polymerase indicative of apoptosis” value ([10]; H1650 and H1975 cells) was “cleavage of poly(ADP-ribose) polymerase” and the “Levels of the Bcl-2 family proteins Bcl-xL, Mcl-1, and Bcl-2” value ([10]; cells treated with antisense Stat3 vs mismatch control) was “reduced”.
